{"source": "patent US20150030989A1", "about": "“Handheld Device for Delivering Photodynamic Therapy” (The Forsyth Institute, priority 2012, published 2015)", "key": {"osteoblasts [1]": {"system": "osteoblasts", "experimental": "(§1) FIG. 7 presents two bar graphs on the growth of methylene blue (MB)-sensitized gingival fibroblasts and osteoblasts as determined by the MTT assay after their exposure to red light.\n(§2) In this study, the viability of human gingival fibroblasts and osteoblasts in vitro was assessed after exposure to methylene blue (MB) and red light with parameters similar to those that may be applied in a clinical setting. […] Both cell types were sensitized with 50 μg/mL methylene blue followed by exposure to red light at 665 nm for 5 minutes with an irradiance of 10, 20, and 40 mW/cm^2. The power densities were 10, 20, and 40 mW/cm^2, corresponding with energy fluencies of 3, 6, and 12 J/cm^2, respectively. In previous studies, light with a power density of 100 mW/cm^2 was used for killing endodontic pathogens within infected root canal specimens in vitro. A portion of that light propagates in dentin and escapes from the tooth. The power density of light escaping from the root specimen ranges from 5 to 10 mW/cm^2 depending on the morphology of the root canal system. In the present study, up to fourfold greater power densities were used.\n(§3) After photodynamic therapy (PDT), cell viability and mitochondrial activity were evaluated by the neutral red and MTT assay, respectively. The assessment of PDT-induced apoptosis was investigated by western blot analysis using cleaved poly(ADPribose) polymerase-specific antibodies. […] Osteoblasts (A) and fibroblasts (B) were treated with MB only (lane MB+), light only (lane L+), or light and MB (lane L+MB+). Control cultures were left untreated (lane −) or treated with 200 μmol/L staurosporine (lane +). Twenty-four hours after treatment, cultures were stopped and analyzed by western blot using cleaved PARP− and b-actin-specific antibodies."}, "osteoblasts [2]": {"system": "osteoblasts", "conditions": "for reduction of viability, MB alone: human, 50 μg/mL", "experimental": "as §2, §3"}, "[3]": {"system": "Peptostreptocococcus micros (ATCC 33270)", "assay": "PDT on endodontic pathogens in planktonic phase: P. micros", "assay_type": "cell-based", "conditions": "methylene blue 25 μg/ml, 5 minutes, mean ± standard error; for Surviving species, PDT: red light 665 nm 30 J/cm^2", "experimental": "(§4) The effects of PDT were investigated on endodontic pathogens in planktonic phase as well as on Enterococcus faecalis biofilms in experimentally infected root canals of extracted teeth. Strains of Porphyromonas gingivalis (ATCC 33277), P. intermedia (ATCC 25611), Fusobacterium nucleatum nucleatum (ATCC 25586), Peptostreptocococcus micros (ATCC 33270), Porphyromonas endodontalis (ATCC 35406), and E. faecalis (ATCC 29212) were sensitized with methylene blue (MB) (25 μg/ml) for 5 minutes followed by exposure to res light of 665 nm with an energy fluence of 30 J/cm^2. […] In Table 1, Surviving species are expressed as percentage-of-controls receiving neither methylene blue nor light. Each value is the mean of values obtained from 2 to 4 experiments (±standard error). The same concentration of MB in combination with red light (222 J/cm^2) was able to eliminate 97% of E. faecalis biofilm bacteria in root canals. Light was uniformly delivered at 360 degrees in the root canal system with a flexible optical fiber with cylindrical diffusers and a diameter of 500 μm. Table 1 presents the survival of endodontic bacteria after their incubation only with methylene blue (25 μg/ml) or methylene blue (25 μg/ml) and red light (30 J/cm^2): […]"}, "[4]": {"system": "Enterococcus faecalis biofilms", "assay": "PDT on E. faecalis biofilms in experimentally infected root canals of extracted teeth", "assay_type": "cell-based", "conditions": "MB 25 μg/ml in combination with red light 222 J/cm^2", "method": "The effects of PDT were investigated on endodontic pathogens in planktonic phase as well as on Enterococcus faecalis biofilms in experimentally infected root canals of extracted teeth. Strains of Porphyromonas gingivalis (ATCC 33277), P. intermedia (ATCC 25611), Fusobacterium nucleatum nucleatum (ATCC 25586), Peptostreptocococcus micros (ATCC 33270), Porphyromonas endodontalis (ATCC 35406), and E. faecalis (ATCC 29212) were sensitized with methylene blue (MB) (25 μg/ml) for 5 minutes followed by exposure to res light of 665 nm with an energy fluence of 30 J/cm^2. […] In Table 1, Surviving species are expressed as percentage-of-controls receiving neither methylene blue nor light. Each value is the mean of values obtained from 2 to 4 experiments (±standard error). […] Light was uniformly delivered at 360 degrees in the root canal system with a flexible optical fiber with cylindrical diffusers and a diameter of 500 μm."}, "[5]": {"system": "Porphyromonas endodontalis (ATCC 35406)", "assay": "PDT on endodontic pathogens in planktonic phase: P. endodontalis", "assay_type": "cell-based", "conditions": "methylene blue 25 μg/ml, 5 minutes; for Surviving species, PDT: red light 665 nm 30 J/cm^2", "experimental": "as §4"}, "[6]": {"system": "human gingival fibroblasts", "assay": "Cell viability, neutral red assay, fibroblasts", "assay_type": "cell-based", "conditions": "50 μg/mL MB, no light, 0 and 24 hours", "experimental": "as §2\nAfter photodynamic therapy (PDT), cell viability and mitochondrial activity were evaluated by the neutral red and MTT assay, respectively. The assessment of PDT-induced apoptosis was investigated by western blot analysis using cleaved poly(ADPribose) polymerase-specific antibodies. […] Twenty-four hours after treatment, cultures were stopped and analyzed by western blot using cleaved PARP− and b-actin-specific antibodies."}, "[7]": {"system": "human gingival fibroblasts", "conditions": "24 h, 50 μg/mL", "experimental": "as §1, §2, §3"}, "[8]": {"system": "multispecies root canal biofilms comprising Actinomyces israelii, Fusobacterium nucleatum subspecies nucleatum, Porphyromonas gingivalis, and Prevotella …", "assay": "PDT on multispecies root canal biofilms in extracted human teeth, CFU assay", "assay_type": "cell-based", "conditions": "MB 25 μg/mL 10 minutes, red light 665 nm 30 J/cm^2", "method": "The photodynamic effects of methylene blue (MB) on multispecies root canal biofilms comprising Actinomyces israelii, Fusobacterium nucleatum subspecies nucleatum, Porphyromonas gingivalis, and Prevotella intermedia in experimentally infected root canals of extracted human teeth were investigated in vitro.\nRoot canal systems were incubated with MB (25 μg/mL) for 10 minutes followed by exposure to red light at 665 nm with an energy fluence of 30 J/cm^2. Light was delivered from a diode laser via a 250-μm diameter polymethyl methacrylate optical fiber that uniformly distributed light over 360 degrees (FIG. 2). […] In FIG. 5, each bar is the mean Logic, CFU levels (+standard error)."}, "E. faecalis (ATCC 29212) [9]": {"system": "E. faecalis (ATCC 29212)"}, "[10]": {"system": "Fusobacterium nucleatum nucleatum (ATCC 25586)", "assay": "PDT on endodontic pathogens in planktonic phase: F. nuc. nuc.", "assay_type": "cell-based", "conditions": "methylene blue 25 μg/ml, 5 minutes, mean ± standard error; for Surviving species, PDT: red light 665 nm 30 J/cm^2", "experimental": "as §4"}, "E. faecalis (ATCC 29212) [11]": {"system": "E. faecalis (ATCC 29212)", "assay": "PDT on endodontic pathogens in planktonic phase: E. faecalis", "assay_type": "cell-based, Enterococcus faecalis", "experimental": "as §4"}, "[12]": {"system": "human gingival fibroblasts", "assay": "PDT-induced apoptosis, western blot for cleaved PARP, fibroblasts", "assay_type": "cell-based", "conditions": "twenty-four hours after treatment", "experimental": "as §3"}, "[13]": {"system": "Porphyromonas gingivalis (ATCC 33277)", "assay": "PDT on endodontic pathogens in planktonic phase: P. gingivalis", "assay_type": "cell-based", "conditions": "methylene blue 25 μg/ml, 5 minutes; for Surviving species, PDT: red light 665 nm 30 J/cm^2", "experimental": "as §4"}, "osteoblasts [14]": {"system": "osteoblasts", "assay": "PDT-induced apoptosis, western blot for cleaved PARP, osteoblasts", "assay_type": "cell-based, human", "conditions": "twenty-four hours after treatment", "experimental": "as §3"}, "[15]": {"system": "P. intermedia (ATCC 25611)", "assay": "PDT on endodontic pathogens in planktonic phase: P. intermedia", "assay_type": "cell-based, Prevotella intermedia", "conditions": "methylene blue 25 μg/ml, 5 minutes; for Surviving species, PDT: red light 665 nm 30 J/cm^2", "experimental": "as §4"}}, "note": "Where two headings read alike, the source gives them in different places."}
{"smiles": "OCl", "note": "[sodium hypochlorite]", "values": [{"measurement": "effect of sodium hypochlorite on osteoblasts, MTT assay", "setting": "osteoblasts [1]", "result": "completely eliminated cells"}, {"measurement": "effect of sodium hypochlorite on osteoblasts, neutral red assay", "setting": "osteoblasts [2]", "result": "completely eliminated cells"}]}
{"smiles": "CN(C)c1ccc2nc3ccc(=[N+](C)C)cc-3sc2c1", "note": "[methylene blue]", "values": [{"measurement": "Surviving species, only methylene blue", "setting": "[3]; no light", "result": "21 ± 10.6", "unit": "percentage-of-controls"}, {"measurement": "Surviving species, PDT", "setting": "[3]", "result": 0, "unit": "percentage-of-controls"}, {"measurement": "Surviving species, PDT", "setting": "[3]; listed as MB", "result": "fully eliminated"}, {"measurement": "E. faecalis biofilm bacteria in root canals eliminated", "setting": "[4]", "result": 97, "unit": "%"}, {"measurement": "Surviving species, only methylene blue", "setting": "[5]; no light", "result": 0, "unit": "percentage-of-controls"}, {"measurement": "Surviving species, PDT", "setting": "[5]", "result": 0, "unit": "percentage-of-controls"}, {"measurement": "Surviving species, PDT", "setting": "[5]; listed as MB", "result": "fully eliminated"}, {"measurement": "effect of MB alone on viability", "setting": "[6]", "result": "no effect"}, {"measurement": "reduction of mitochondrial activity, MB alone", "setting": "osteoblasts [1]; human, 0 h, 50 μg/mL", "result": 3.1, "unit": "%"}, {"measurement": "reduction of mitochondrial activity, L20+MB+", "setting": "osteoblasts [1]; human, 24 h, 50 μg/mL", "result": "approximately 34%"}, {"measurement": "reduction of mitochondrial activity, L40+MB+", "setting": "osteoblasts [1]; human, 24 h, 50 μg/mL", "result": "approximately 34%"}, {"measurement": "reduction of mitochondrial activity, MB alone", "setting": "osteoblasts [1]; human, 24 h, 50 μg/mL", "result": 13.5, "unit": "%"}, {"measurement": "reduction of mitochondrial activity, L40+MB+", "setting": "[7]", "result": 18.5, "unit": "%"}, {"measurement": "reduction of colony-forming unit counts (CFU), PDT", "setting": "[8]", "result": "up to 80%"}, {"measurement": "mean CFU levels, combination of light and MB versus control or MB alone", "setting": "[8]; FIG. 5", "result": "significantly lower than either control or MB alone"}, {"measurement": "reduction of E. faecalis viability, PDT", "setting": "E. faecalis (ATCC 29212) [9]; 6.25 μg/ml MB 5 minutes, light 665 nm 60 J/cm^2", "result": 77.5, "unit": "%"}, {"measurement": "reduction of bacterial viability, MB alone", "setting": "E. faecalis (ATCC 29212) [9]; 6.25 μg/ml MB, no light", "result": 19.5, "unit": "%"}, {"measurement": "Surviving species, only methylene blue", "setting": "[10]; no light", "result": "5.5 ± 0.4", "unit": "percentage-of-controls"}, {"measurement": "Surviving species, PDT", "setting": "[10]", "result": 0, "unit": "percentage-of-controls"}, {"measurement": "Surviving species, PDT", "setting": "[10]; listed as MB", "result": "fully eliminated"}, {"measurement": "Surviving species, only methylene blue", "setting": "E. faecalis (ATCC 29212) [11]; methylene blue 25 μg/ml, 5 minutes, no light, mean ± standard error", "result": "94.5 ± 17.6", "unit": "percentage-of-controls"}, {"measurement": "Surviving species, PDT", "setting": "E. faecalis (ATCC 29212) [11]; methylene blue 25 μg/ml, 5 minutes, red light 665 nm 30 J/cm^2, mean ± standard error", "result": "47 ± 12.1", "unit": "percentage-of-controls"}, {"measurement": "killing", "setting": "E. faecalis (ATCC 29212) [11]; planktonic, MB 25 μg/ml 5 minutes, light 665 nm 30 J/cm^2", "result": 53, "unit": "%"}, {"measurement": "reduction of viability, MB alone", "setting": "osteoblasts [2]; 0 h", "result": 9.4, "unit": "%"}, {"measurement": "reduction of viability, MB alone", "setting": "osteoblasts [2]; 24 h", "result": 14.6, "unit": "%"}, {"measurement": "PARP cleavage, light and MB", "setting": "[12]; lane L+MB+", "result": "Neither treatment resulted in PARP cleavage"}, {"measurement": "PARP cleavage, MB only", "setting": "[12]; lane MB+", "result": "Neither treatment resulted in PARP cleavage"}, {"measurement": "Surviving species, only methylene blue", "setting": "[13]; no light, mean ± standard error", "result": "6.7 ± 0.1", "unit": "percentage-of-controls"}, {"measurement": "Surviving species, PDT", "setting": "[13]", "result": 0, "unit": "percentage-of-controls"}, {"measurement": "Surviving species, PDT", "setting": "[13]; listed as MB", "result": "fully eliminated"}, {"measurement": "PARP cleavage, light and MB", "setting": "osteoblasts [14]; lane L+MB+", "result": "Neither treatment resulted in PARP cleavage"}, {"measurement": "PARP cleavage, MB only", "setting": "osteoblasts [14]; lane MB+", "result": "Neither treatment resulted in PARP cleavage"}, {"measurement": "Surviving species, only methylene blue", "setting": "[15]; no light", "result": 0, "unit": "percentage-of-controls"}, {"measurement": "Surviving species, PDT", "setting": "[15]", "result": 0, "unit": "percentage-of-controls"}, {"measurement": "Surviving species, PDT", "setting": "[15]; listed as MB", "result": "fully eliminated"}]}
